Source: patent publication US5136080A, “Nitrile compounds” (Burroughs Wellcome Co., priority 1990, dated 1992)

Assays:
Rat Liver DHFR = target: T1, Rat Liver DHFR (Rattus norvegicus, UniProt Q920D2); assay: biochemical; details: DHFR enzyme activity, P95 limits in parentheses
T1 sequence (Q920D2 1-187): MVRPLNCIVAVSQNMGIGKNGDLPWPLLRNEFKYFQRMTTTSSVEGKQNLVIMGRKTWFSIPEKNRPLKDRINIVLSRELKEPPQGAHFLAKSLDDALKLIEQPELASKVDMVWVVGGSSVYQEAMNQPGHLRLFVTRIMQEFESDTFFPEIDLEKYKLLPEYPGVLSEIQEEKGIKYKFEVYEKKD
Description: (§1) Compounds of Formula (I) were tested for their effect on veratrine-evoked release of glutamate from rat brain slices according to the protocol described in Epilepsia 27(5): 490-497, 1986. The protocol for testing for inhibition of DHFR activity was a modification of that set out in Biochemical Pharmacology Vol. 20 pp 561-574, 1971.

[1] = system: veratrine-evoked release of glutamate from rat brain slices; assay: tissue or blood; format: cell-based; details: P95 limits in parentheses
Description: as §1

Toxicology in rats = details: rat, in vivo, read-out: no observed effect dose
Description: (§2) The compound of Example 2, has been tested in both rats and dogs. In rats the no observed effect dose was 2.5 mg/kg/day and in dogs, the no observed effect dose was 14 mg/kg/day.

[2] = Duration of action / clearance from the central nervous system (statement); details: statement in words
in vivo = assay: in vivo; design: species or system dogs; details: dog
Description: as §2

[3] = system: release of the excitatory amino acid aspartate; details: statement in words; Leach et al Epilepsia 27, 490-497 1986; Miller et al 1987; cited from earlier work
[4] = system: release of the excitatory amino acid glutamate; details: statement in words; Leach et al Epilepsia 27, 490-497 1986; Miller et al 1987; cited from earlier work
[5] = Toxicology, once daily intravenous administration to Wistar rats; details: rat, in vivo, dose levels of upto 15 mg/kg/day, read-out: no observed effect dose
Description: The compound of Example 1 has been administered intravenously to groups of six male and six female Wistar rats once daily at dose levels of upto 15 mg/kg/day. The no observed effect dose was 2.5 mg/kg/day.

SMILES: Cc1nc(N)nc(N)c1-c1cc(Cl)c([N+](=O)[O-])c(Cl)c1Cl [Example 12, 2,4-diamino-6-methyl-5-(2,3,5-trichloro-4-nitrophenyl) pyrimidine]
- IC50 (Rat Liver DHFR): > 100 µM
- IC50 [1]: < 10 µM

SMILES: Nc1ncc(-c2cccc3ccccc23)c(N)n1 [Example 17, 2,4-Diamino-5-(1-naphthyl)pyrimidine]
- IC50 (Rat Liver DHFR): 4.9 µM
- IC50 [1]: 2.4 µM

SMILES: COCc1nc(N)nc(N)c1-c1cccc(Cl)c1Cl [Example 16, 2,4-Diamino-5-(2,3-dichlorophenyl)-6-methoxymethylpyrimidine]
- IC50 (Rat Liver DHFR): > 100 µM
- IC50 [1]: 3.2 µM

SMILES: Cc1nc(N)nc(N)c1-c1cccc(Cl)c1Cl [Example 15, 2,4-Diamino-5-(2,3-dichlorophenyl)-6-methylpyrimidine]
- IC50 (Rat Liver DHFR): 8.7 µM
- IC50 [1]: 2.7 µM

SMILES: Nc1nc(N)c(-c2ccc(Cl)cc2Cl)c(C(F)(F)F)n1 [Example 25, 2,4-Diamino-5-(2,4-dichlorophenyl)-6-trifluoromethylpyrimidine]
- IC50 (Rat Liver DHFR): > 100 µM
- IC50 [1]: 4.1 µM

SMILES: Nc1nc(N2CCOCC2)nc(C(F)(F)F)c1-c1cc(Cl)cc(Cl)c1Cl [Example 7, 4-Amino-2-N-morpholino-5-(2,3,5-trichlorophenyl)-6-trifluoromethylpyrimidine]
- IC50 (Rat Liver DHFR): > 10 µM
- IC50 [1]: < 10 µM

SMILES: Cc1nc(N)nc(N)c1-c1ccccc1Cl [Example 22, 2,4-Diamino-5-(2-chlorophenyl)-6-methyl-pyrimidine]
- IC50 (Rat Liver DHFR): 23.8 µM
- IC50 [1]: 2.8 µM

SMILES: COCc1nc(N)nc(N)c1-c1cc(Cl)cc(Cl)c1Cl [Example 2, 2,4-Diamino-5-(2,3,5-trichlorophenyl)-6-methoxymethylpyrimidine]
- NOAEL (Toxicology in rats): 2.5 mg/kg/day
- clearance from the central nervous system [2]: cleared from the central nervous system rapidly
- IC50 (Rat Liver DHFR): 33 µM
- NOAEL (in vivo): 14 mg/kg/day
- IC50 [1]: 0.56 µM

SMILES: Nc1ncc(-c2ccccc2Cl)c(N)n1 [Example 23, 2,4-Diamino-5-(2-chlorophenyl)pyrimidine]
- IC50 (Rat Liver DHFR): 20.9 µM
- IC50 [1]: 8.7 µM

SMILES: Cc1nc(N)nc(N)c1-c1cc(Cl)cc(Cl)c1Cl [Example 6, 2,4-Diamino-5-(2,3,5-trichlorophenyl)-6-methylpyrimidine]
- IC50 (Rat Liver DHFR): 0.51 µM
- IC50 [1]: 0.7 µM

SMILES: CN1CCN(c2ncc(-c3ccc(Cl)cc3Cl)c(N)n2)CC1 [Example 27, 2-(4-methylpiperazin-1-yl)-4-amino-5-(2,4-dichlorophenyl)pyrimidine]
- IC50 (Rat Liver DHFR): > 100 µM
- IC50 [1]: ~10 µM

SMILES: CN(C)c1nc(N)c(-c2cc(Cl)cc(Cl)c2Cl)c(C(F)(F)F)n1 [Example 8, 4-Amino-2-N,N-dimethylamino-5-(2,3,5-trichlorophenyl)-6-trifluoromethylpyrimidine]
- IC50 (Rat Liver DHFR): > 10 µM
- IC50 [1]: < 10 µM

SMILES: Nc1nc(N)c(-c2cccc(Cl)c2Cl)c(CF)n1 [Example 18, 2,4-Diamino-5-(2,3-dichlorophenyl)-6-fluoromethylpyrimidine]
- IC50 (Rat Liver DHFR): ~100 µM
- IC50 [1]: < 10 µM

SMILES: Cc1nc(N(C)C)nc(N)c1-c1cc(Cl)cc(Cl)c1Cl [Example 13, 4-Amino-2-(N,N-dimethylamino)-6-methyl-5-(2,3,5-trichlorophenyl)pyrimidine]
- IC50 (Rat Liver DHFR): > 100 µM
- IC50 [1]: < 10 µM

SMILES: CN(C)c1ncc(-c2cc(Cl)cc(Cl)c2Cl)c(N)n1 [Example 10, 4-Amino-2-N,N-dimethylamino-5-(2,3,5-trichlorophenyl)pyrimidine]
- IC50 (Rat Liver DHFR): > 100 µM
- IC50 [1]: < 10 µM

SMILES: Nc1ncc(-c2cc(Cl)c([N+](=O)[O-])c(Cl)c2Cl)c(N)n1 [Example 5, 2,4-Diamino-5-(4-nitro-2,3,5-trichlorophenyl)pyrimidine]
- IC50 (Rat Liver DHFR): ~100 µM
- IC50 [1]: 3.5 µM

SMILES: Nc1nc(N)c(-c2cc(Cl)ccc2Cl)c(C(F)(F)F)n1 [Example 28, 2,4-Diamino-5-(2,5-dichlorophenyl)-6-trifluoromethylpyrimidine]
- IC50 (Rat Liver DHFR): 46.1 µM
- IC50 [1]: 4.6 µM

SMILES: Nc1nc(N)c(-c2cc(Cl)cc(Cl)c2Cl)c(C(F)(F)F)n1 [Example 4, 2,4-Diamino-5-(2,3,5-trichlorophenyl)-6-trifluoromethylpyrimidine]
- IC50 (Rat Liver DHFR): > 100 µM
- IC50 [1]: 0.33 µM

SMILES: Nc1nc(N)c(-c2cccc(Cl)c2Cl)c(C(F)(F)F)n1 [Example 14, 2,4-Diamino-5-(2,3-dichlorophenyl)-6-trifluoromethylpyrimidine]
- IC50 (Rat Liver DHFR): > 100 µM
- IC50 [1]: 3.1 µM

SMILES: Nc1nnc(-c2cccc(Cl)c2Cl)c(N)n1 [lamotrigine, 3,5-diamino-6-(2,3-dichlorophenyl)-1,2,4-triazine]
- inhibition of the release of aspartate [3]: shown to inhibit the release
- inhibition of the release of glutamate [4]: shown to inhibit the release

SMILES: Cc1nc(N2CCN(C)CC2)nc(N)c1-c1cc(Cl)cc(Cl)c1Cl [Example 11, 4-Amino-6-methyl-2-(4-methylpiperazin-1-yl)-5-(2,3,5-trichlorophenyl)pyrimidine]
- IC50 (Rat Liver DHFR): > 100 µM
- IC50 [1]: 4.8 µM

SMILES: CCc1nc(N)nc(N)c1-c1ccccc1Cl [Example 24, 2,4-Diamino-5-(2-chlorophenyl)-6-ethylpyrimidine]
- IC50 (Rat Liver DHFR): 15.1 µM
- IC50 [1]: 2.1 µM

SMILES: Nc1nc(N)c(-c2ccc(Cl)cc2Cl)c(COCc2ccccc2)n1 [Example 26, 6-Benzyloxymethyl-2,4-diamino-5-(2,4-dichlorophenyl)pyrimidine]
- IC50 (Rat Liver DHFR): ~10 µM
- IC50 [1]: ~3 µM

SMILES: Nc1nc(N2CCOCC2)ncc1-c1cc(Cl)cc(Cl)c1Cl [Example 9, 4-Amino-2-N-morpholino-5-(2,3,5-trichlorophenyl)-pyrimidine]
- IC50 (Rat Liver DHFR): > 100 µM
- IC50 [1]: < 10 µM

SMILES: Nc1ncc(-c2cc(Cl)cc(Cl)c2Cl)c(N)n1 [Example 29, 2,4-Diamino-5-(2,3,5-trichlorophenyl)pyrimidine]
- IC50 (Rat Liver DHFR): 0.53 µM
- IC50 [1]: 1.57 µM

SMILES: Nc1nc(N)c(-c2cccc(Cl)c2Cl)c(COc2ccccc2)n1 [Example 19, 2,4-Diamino-5-(2,3-dichlorophenyl)-6-phenoxymethylpyrimidine]
- IC50 (Rat Liver DHFR): > 100 µM
- IC50 [1]: 2.6 µM

SMILES: CSCc1nc(N)nc(N)c1-c1cccc(Cl)c1Cl [Example 20, 2,4-Diamino-5-(2,3-dichlorophenyl)-6-methylthiomethylpyrimidine]
- IC50 (Rat Liver DHFR): 17.5 µM
- IC50 [1]: 4.2 µM

SMILES: Nc1ncc(-c2cccc(Cl)c2Cl)c(N)n1 [Example 21, 2,4-Diamino-5-(2,3-dichlorophenyl)pyrimidine]
- IC50 (Rat Liver DHFR): 16 µM
- IC50 [1]: 11.5 µM

SMILES: CN1CCN(c2nc(N)c(-c3cc(Cl)cc(Cl)c3Cl)c(C(F)(F)F)n2)CC1 [Example 1, 4-Amino-2-(4-methylpiperazin-1-yl)-5-(2,3,5-trichlorophenyl)-6-trifluoromethylpyrimidine]
- IC50 (Rat Liver DHFR): > 100 µM
- IC50 [1]: 1.18 µM
- NOAEL [5]: 2.5 mg/kg/day
